# Measurements taken from patent US4590166A, “Method for separating and measuring the amount of polar compounds and their metabolites in aqueous solutions” (priority 1983, dated 1986).
# Columns and labels:
# [1] = plasma levels of pyridostigmine in rats; assay type: in vivo, rat
# Method: (§1) For animal studies, rats weighing 175-225 g were placed in metabolic cages and deprived of solid food for 14 hours. For urine studies they were hydrated by the administration of 2.5 ml per 100 g of warm water by stomach tube. This was repeated after 1 hour. An 80 μg aliquot of pyridostigmine in 0.2 ml water was injected intramuscularly into a hind limb. Urine free from feces was collected over a period of 24 hours. In blood studies a similar dose was administered intramuscularly. At selected intervals over a period of 1 hour blood specimens were collected from excised hearts.
# (§2) The assay was applied to the quantitation of pyridostigmine in urine and plasma of rats following the oral administration of 450 μg of pyridostigmine bromide per kg of body weight. One ml of urine and 1.5 ml of plasma samples were used for an assay. The urinary excretion of pyridostigmine in three rats over a 24-hour period was 60.0 and 65.4% of […]
# [2] = urinary excretion of pyridostigmine in rats; assay type: in vivo, rat
# Method: as §1, §2
# [3] = extraction of pyridostigmine from basic solutions by organic solvents; assay type: physicochemical
smiles,measurement,setting,value
CN(C)C(=O)Oc1ccc[n+](C)c1 [pyridostigmine],initial plasma concentrations relative to that of urine,[1]; average of three experiments for a single time point,about 1/25
same,concentration at 7 min,"[1]; plasma, im, 0.08 mg, approximately 80 μg per rat, after 7 min",250 ng/mL
same,concentration at 1 h,"[1]; plasma, im, 0.08 mg, approximately 80 μg per rat, within 1 hour",< 50 ng/mL
same,urinary excretion of pyridostigmine (% of the total dose injected),"[2]; over a 24-hour period, 450 μg/kg pyridostigmine bromide, 0.45 mg/kg, 1440 min",65.4%
same,dose excreted at 48 h,"[2]; rat, urine, im, 0.08 mg, between 24 and 48 hours, read-out: urinary excretion (% of the total dose injected)",< 5%
same,dose excreted at 24 h,"[2]; rat, urine, im, 0.45 mg/kg, over a 24-hour period, 450 μg/kg pyridostigmine bromide, read-out: urinary excretion of pyridostigmine (% of the total dose injected)",60%
same,extraction from basic solutions by organic solvents of various polarities,[3],could not extract
